The results in this text go back to ChEMBL document CHEMBL3046520, “Synthesis of novel 2-phenyl-3-[2-(substituted amino) ethylamino] quinazolin-4(3H)-ones as a new class of H1-antihistaminic agents” (Med Chem Res, 2013).

The structures appear in SMILES notation.

Data set [1] relates to Mus musculus. The data set is described as follows: Induction of sedation-hypnotic activity in Mus musculus Albino Swiss (mouse) assessed as reduction in locomotor activity at 5 mg/kg, po measured after 2 hr by actophotometer. Particulars: in vivo. In kind it is organism-based. On the set-up: dose 5 mg/kg, route oral; scale not given: the % may be the effect or the level left.

Data set [2] concerns Cavia porcellus. Kind of data set: In vivo H1-antihistaminic activity in conscious Cavia porcellus Dunkin-Hartley (guinea pig) assessed as protection against histamine-induced bronchospasm at 10 mg/kg, po. The class given is functional.
Data set [3] deals with Mus musculus. The data set is described as follows: Induction of sedation-hypnotic activity in Mus musculus Albino Swiss (mouse) assessed as reduction in locomotor activity at 5 mg/kg, po measured after 0.5 hr by actophotometer. Set-up: dose 5 mg/kg, route oral; scale not given: the % may be the effect or the level left. Particulars: in vivo. The class given is organism-based.

The subject of data set [4] is Cavia porcellus. Kind of data set: In vivo H1-antihistaminic activity in Cavia porcellus Dunkin-Hartley (guinea pig) assessed as time of onset of convulsion at 10 mg/kg, po. The class given is functional.
The subject of data set [5] is Mus musculus. The data set is described as follows: Induction of sedation-hypnotic activity in Mus musculus Albino Swiss (mouse) assessed as reduction in locomotor activity at 5 mg/kg, po measured after 3 hr by actophotometer. The class given is organism-based. Set-up: dose 5 mg/kg, route oral; scale not given: the % may be the effect or the level left. Particulars: in vivo.

For data set [6], the system named is Mus musculus. Kind of data set: Induction of sedation-hypnotic activity in Mus musculus Albino Swiss (mouse) assessed as reduction in locomotor activity at 5 mg/kg, po measured after 1 hr by actophotometer. In kind it is organism-based. Set-up: dose 5 mg/kg, route oral; scale not given: the % may be the effect or the level left. Particulars: in vivo.
Data set [7] relates to Cavia porcellus. Kind of data set: In vivo H1-antihistaminic activity in Cavia porcellus Dunkin-Hartley (guinea pig) assessed as time of onset of convulsion at 25 mg/kg, ip. The class given is functional. Particulars: route intraperitoneal.
Data set [8] concerns Cavia porcellus. Kind of data set: In vivo H1-antihistaminic activity in conscious Cavia porcellus Dunkin-Hartley (guinea pig) assessed as protection against histamine-induced bronchospasm at 25 mg/kg, ip. In kind it is functional. The conditions noted are these: route intraperitoneal.

Consider `O=c1c2ccccc2nc(-c2ccccc2)n1NCCN1CCNCC1`, for which the Activity in the data set with Mus musculus [1] is 10.79%; in the data set on Cavia porcellus [2] it was 73.67%; with Mus musculus [3], 9.35%; with Mus musculus [5] it was 8.21%; in the data set with Mus musculus [6] it was 10.42%. Besides, the Time in the data set with Cavia porcellus [4] stood at 433 s.

In the case of `O=c1c2ccccc2nc(-c2ccccc2)n1NCCNc1ccccc1`, the Activity in the data set on Mus musculus [1] came to 12.32%; in the data set with Cavia porcellus [2], 71.64%; with Mus musculus [3], 11.32%; in the data set on Mus musculus [5], 10.11%; in the data set on Mus musculus [6] it was 11.55%. Besides, the Time in the data set on Cavia porcellus [4] is given as 402 s.

With `O=c1c2ccccc2nc(-c2ccccc2)n1NCCNCc1ccccc1`, the Activity in the data set on Mus musculus [1] worked out at 12.31%; with Cavia porcellus [2], 68.85%; in the data set with Mus musculus [3], 10.42%; in the data set on Mus musculus [5] it was 8.9%; with Mus musculus [6], 11.52%. Moreover, in the data set on Cavia porcellus [4], the Time is 366 s.

On to `Cc1ccccc1NCCNn1c(-c2ccccc2)nc2ccccc2c1=O`, for which the Activity with Mus musculus [1] came to 10.38%; with Cavia porcellus [2] it was 69.6%; with Mus musculus [3], 9.42%; in the data set on Mus musculus [5] it was 7.13%; in the data set on Mus musculus [6], 9.88%. Also, in the data set on Cavia porcellus [4], the Time is on record as 375 s.

Regarding `COc1cccc(NCCNn2c(-c3ccccc3)nc3ccccc3c2=O)c1`, the Activity in the data set on Mus musculus [1] is 11.63%; in the data set on Cavia porcellus [2], 70.15%; with Mus musculus [3] it was 10.35%; in the data set with Mus musculus [5], 9.32%; in the data set with Mus musculus [6] it was 10.89%. In addition, the Time with Cavia porcellus [4] is on record as 382 s.

As to `O=c1c2ccccc2nc(-c2ccccc2)n1NCCNc1ccc(Cl)cc1`, the Activity is reported as 10.73% in the data set with Mus musculus [1]; 72.12% in the data set with Cavia porcellus [2]; 8.28% in the data set on Mus musculus [3]; 6.48% in the data set on Mus musculus [5]; 9.42% in the data set with Mus musculus [6]. For the same molecule, in the data set with Cavia porcellus [4], the Time is on record as 416 s.

For `O=c1c2ccccc2nc(-c2ccccc2)n1NCCNc1nccs1`, the Activity came to 9.85% with Mus musculus [1]; 72.12% in the data set on Cavia porcellus [2]; 8.21% in the data set with Mus musculus [3]; 7.43% with Mus musculus [5]; 9.52% with Mus musculus [6]. Further, the Time in the data set with Cavia porcellus [4] was 409 s.

With `CN(C)CCC(c1ccc(Cl)cc1)c1ccccn1.O=C(O)/C=C\C(=O)O` (stereo unspecified) [CHLORPHENIRAMINE MALEATE], the Activity in the data set on Mus musculus [1] stood at 34.8%; in the data set on Mus musculus [3], 32.04%; in the data set with Mus musculus [5], 29.58%; in the data set with Cavia porcellus [8], 70.09%; with Mus musculus [6], 38.8%. Also, the Time in the data set with Cavia porcellus [7] worked out at 394 s.

In the case of `O=c1c2ccccc2nc(-c2ccccc2)n1NCCN1CCOCC1`, the Activity in the data set with Mus musculus [1] amounted to 10.41%; in the data set on Cavia porcellus [2] it was 73.36%; with Mus musculus [3], 8.43%; in the data set on Mus musculus [5], 7.32%; in the data set with Mus musculus [6], 9.32%. For the same molecule, the Time in the data set on Cavia porcellus [4] was 428 s.

`O=c1c2ccccc2nc(-c2ccccc2)n1NCCNc1ccc([N+](=O)[O-])cc1`: the Activity in the data set on Mus musculus [1] is 11.04%; in the data set on Cavia porcellus [2], 71.06%; in the data set with Mus musculus [3], 9.51%; with Mus musculus [5] it was 8.32%; in the data set on Mus musculus [6], 9.98%. Further, the Time in the data set on Cavia porcellus [4] was 394 s.

`COc1ccc(NCCNn2c(-c3ccccc3)nc3ccccc3c2=O)cc1`: the Activity in the data set with Mus musculus [1] is 10.94%; in the data set with Cavia porcellus [2], 71.35%; in the data set with Mus musculus [3], 9.03%; in the data set on Mus musculus [5], 8.53%; with Mus musculus [6], 10.43%. Further, in the data set with Cavia porcellus [4], the Time came out at 398 s.
